# According to US12474342B2, “Methods for treating cancer and the use of biomarkers as a predictor of clinical sensitivity to therapies” (CELGENE CORPORATION, priority 2016, dated 2025):
# Marks after values point to notes of the source that are not given here.
# How the values were obtained:
# NB-4 cells = experiment: Anti-proliferation 72-hour CTG assay, NB-4; format: cell-based; conditions: Homo sapiens; NB-4, 72-hour CTG assay; read-out: IC50 of the anti-proliferative effect
# Method: A plethora of AML cell lines were treated with serial dilutions of Compound D. IC50 value of the anti-proliferation effect of Compound D (as determined in 72-hour CTG assays) in each cell line is summarized in Table 1.
# GSPT1 [1] = target: T1, GSPT1 (Homo sapiens, UniProt P15170+Q96SW2); experiment: GSPT1 degradation in NB4 cell line; format: cell-based; parameters: endogenous in cells; conditions: NB4 cell line
# T1 sequence (P15170 1-637 isoform P15170-3): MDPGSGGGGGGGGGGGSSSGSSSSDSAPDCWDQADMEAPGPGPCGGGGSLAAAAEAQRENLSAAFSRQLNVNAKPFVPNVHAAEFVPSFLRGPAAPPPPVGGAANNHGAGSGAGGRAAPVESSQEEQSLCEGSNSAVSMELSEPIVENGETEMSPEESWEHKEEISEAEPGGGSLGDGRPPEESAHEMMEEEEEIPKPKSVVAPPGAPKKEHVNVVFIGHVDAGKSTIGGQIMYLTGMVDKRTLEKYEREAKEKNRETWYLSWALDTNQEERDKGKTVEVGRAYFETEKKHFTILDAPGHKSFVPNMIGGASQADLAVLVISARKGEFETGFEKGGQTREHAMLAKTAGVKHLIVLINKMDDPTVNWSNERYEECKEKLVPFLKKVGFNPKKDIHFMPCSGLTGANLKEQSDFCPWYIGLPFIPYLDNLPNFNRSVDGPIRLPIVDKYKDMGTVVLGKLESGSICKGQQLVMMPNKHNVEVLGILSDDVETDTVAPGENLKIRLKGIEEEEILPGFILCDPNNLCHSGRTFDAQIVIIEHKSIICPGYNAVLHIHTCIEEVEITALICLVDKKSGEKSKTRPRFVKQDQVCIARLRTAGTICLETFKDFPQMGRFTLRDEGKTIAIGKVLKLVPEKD
# T1 sequence (Q96SW2 whole entry): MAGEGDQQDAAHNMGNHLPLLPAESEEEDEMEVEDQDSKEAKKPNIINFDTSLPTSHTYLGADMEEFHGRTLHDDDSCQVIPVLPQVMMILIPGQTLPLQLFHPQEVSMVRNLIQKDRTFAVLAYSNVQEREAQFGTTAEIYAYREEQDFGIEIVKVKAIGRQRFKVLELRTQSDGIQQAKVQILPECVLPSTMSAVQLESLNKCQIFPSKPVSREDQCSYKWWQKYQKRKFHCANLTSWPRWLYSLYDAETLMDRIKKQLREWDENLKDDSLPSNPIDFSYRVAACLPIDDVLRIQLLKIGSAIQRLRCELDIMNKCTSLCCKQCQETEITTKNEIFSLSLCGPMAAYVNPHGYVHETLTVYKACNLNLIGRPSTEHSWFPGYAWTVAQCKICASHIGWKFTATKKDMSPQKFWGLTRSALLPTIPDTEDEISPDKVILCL
# T1 sequence (Q16531 whole entry partner): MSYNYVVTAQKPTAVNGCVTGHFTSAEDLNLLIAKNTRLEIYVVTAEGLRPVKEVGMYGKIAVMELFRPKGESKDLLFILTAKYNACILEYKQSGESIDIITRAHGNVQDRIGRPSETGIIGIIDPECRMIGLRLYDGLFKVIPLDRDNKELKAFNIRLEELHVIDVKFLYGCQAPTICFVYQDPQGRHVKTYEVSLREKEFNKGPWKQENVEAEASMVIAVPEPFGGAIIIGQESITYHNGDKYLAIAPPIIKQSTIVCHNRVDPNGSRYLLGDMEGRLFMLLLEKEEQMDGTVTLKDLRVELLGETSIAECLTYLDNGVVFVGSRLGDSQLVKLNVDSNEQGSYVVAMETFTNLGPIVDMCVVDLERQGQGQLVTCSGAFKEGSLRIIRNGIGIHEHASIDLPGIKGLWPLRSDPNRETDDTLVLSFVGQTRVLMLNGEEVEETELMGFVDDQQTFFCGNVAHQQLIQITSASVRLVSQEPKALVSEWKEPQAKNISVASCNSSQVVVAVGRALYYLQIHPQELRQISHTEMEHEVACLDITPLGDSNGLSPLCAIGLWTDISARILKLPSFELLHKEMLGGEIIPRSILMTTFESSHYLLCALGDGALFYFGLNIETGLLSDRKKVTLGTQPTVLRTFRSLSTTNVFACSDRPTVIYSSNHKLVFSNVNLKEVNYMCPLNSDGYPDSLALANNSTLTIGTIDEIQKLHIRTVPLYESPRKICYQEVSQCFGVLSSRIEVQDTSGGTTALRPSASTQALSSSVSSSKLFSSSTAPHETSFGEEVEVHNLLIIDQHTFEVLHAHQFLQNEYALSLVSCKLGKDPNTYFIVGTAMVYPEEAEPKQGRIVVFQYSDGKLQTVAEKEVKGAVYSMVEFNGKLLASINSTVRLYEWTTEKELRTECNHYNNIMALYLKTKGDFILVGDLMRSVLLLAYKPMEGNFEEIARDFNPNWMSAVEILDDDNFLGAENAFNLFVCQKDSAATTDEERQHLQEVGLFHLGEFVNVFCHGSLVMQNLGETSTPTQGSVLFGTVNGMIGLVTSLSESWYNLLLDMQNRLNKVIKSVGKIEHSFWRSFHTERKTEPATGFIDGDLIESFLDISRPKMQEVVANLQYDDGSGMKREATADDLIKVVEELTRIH
# GSPT1 [2] = target: T1, GSPT1; experiment: GSPT1 protein reduction, western analysis, F36-P; format: cell-based; parameters: reduction in GSPT1 protein level was evaluated in human normal PBMCs; endogenous in cells; host or cells: primary PBMCs from normal donors (ID 4328, 4379) and AML patients (ID 11SH, 09P6)
# Method: (§1) The time course of the reduction in GSPT1 by Compound D also was studied for up to 48 hours. The progressive degradation of GSPT1 over the course of 1 to 20 hours was evident in the presence of all concentrations of Compound D studied from 3 to 300 nM in HNT-34, HL-60, and ML-2 cells, with little GSPT1 remaining by 20 hours at 100 or 300 nM Compound D in HNT-34 or HL-60 cells (FIG. 34 and FIG. 35C). Time-dependent reduction in GSPT1 was also observed in KG-1 and OCI-AML2 cells at 3 to 1000 nM Compound D, with little GSPT1 remaining in KG-1 cells at 100 to 300 nM at 24 hours or in OCI-AML2 cells at 300 and 1000 nM at 24 hours (FIG. 35D). Loss of GSPT1 occurred more slowly in Kasumi-1, AML-193, and […] cells. […] A positive association (r^2=0.50; […]
# IKZF1 = IKZF1 (Homo sapiens, UniProt Q13422+Q96SW2); conditions: NB4 cell line
# IKZF1, sequence (Q13422 whole entry): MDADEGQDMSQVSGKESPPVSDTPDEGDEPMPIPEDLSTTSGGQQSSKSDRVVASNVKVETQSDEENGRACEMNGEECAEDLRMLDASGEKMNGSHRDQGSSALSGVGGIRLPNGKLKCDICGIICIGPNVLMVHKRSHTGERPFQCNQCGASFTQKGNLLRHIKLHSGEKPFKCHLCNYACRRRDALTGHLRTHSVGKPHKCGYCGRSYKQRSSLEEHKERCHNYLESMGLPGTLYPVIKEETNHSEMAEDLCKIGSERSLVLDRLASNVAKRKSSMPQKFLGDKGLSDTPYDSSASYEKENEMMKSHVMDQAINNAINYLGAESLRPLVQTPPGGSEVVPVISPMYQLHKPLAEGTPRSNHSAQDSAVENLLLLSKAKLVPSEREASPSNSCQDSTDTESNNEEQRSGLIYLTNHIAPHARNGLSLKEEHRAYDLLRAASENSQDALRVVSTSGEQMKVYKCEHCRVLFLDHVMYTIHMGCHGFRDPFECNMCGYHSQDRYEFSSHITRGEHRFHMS
# IKZF1, sequence (Q96SW2 whole entry): as the sequence (Q96SW2 whole entry) above
# IKZF1, sequence (Q16531 whole entry partner): as the sequence (Q16531 whole entry partner) above
# XBP1 = XBP1 assay in U937 cells; format: cell-based, human; conditions: 0.5 μM TG for 6 hours or 4 μM Compound D for 8, 16, or 32 hours
# Method: IRE1, a kinase that activates the XBP1 pathway, was knocked out in U937 cells by CRISPR-mediated gene editing using IRE1 CRISPR constructs. Wild type U937 cells or IRE1 CRISPR knockout U937 cells were treated with 0.5 μM TG for 6 hours or 4 μM Compound D for 8, 16, or 32 hours, then subject to XBP1 assay.
# F36-P cells = experiment: Apoptosis (caspase 3/7 activation), F36-P; format: cell-based, human
# GSPT1 [3] = target: T1, GSPT1; experiment: GSPT1 protein reduction, western analysis, HL-60; format: cell-based; parameters: reduction in GSPT1 protein level was evaluated in human normal PBMCs; endogenous in cells; host or cells: primary PBMCs from normal donors (ID 4328, 4379) and AML patients (ID 11SH, 09P6)
# Method: as §1, with “FIG. 30C [HL-60]) and 48-hour (FIG. 30B [KG-1]; FIG. 30D [HL-60]) time points. […] The time” for “The time”
# ATF4 = ATF4 protein induction, western blot, HNT-34; format: cell-based, human; conditions: HNT-34, 10 nM Compound D
# Method: The time course of GSPT1 degradation was monitored by western blot analysis of HNT-34 AML cells and normal PBMCs (FIGS. 32A-32D) following incubation with Compound D (1, 10, and 100 nM).
# DDIT3 (CHOP) = DDIT3 (CHOP) mRNA, quantitative PCR, KG-1; format: cell-based, human; conditions: KG-1, 100 nM Compound D or greater
# Method: Compound D regulates UPR stress RNAs, ATF3 and CHOP, and nonsense-mediated decay (NMD) RNAs, SRSF3 and SRSF6, in KG-1 cells in both dose- and time-dependent manners. KG-1 cells were plated in 10 cm^2 dishes and incubated overnight. The following day, KG-1 cells were treated with a 6-point dose response (0, 3, 10, 30, 100, 300 nM) of Compound D and incubated for 2, 4, 8, and 20 hours. Cells were removed from dishes and cell pellets were prepared for RNA isolation (Qiagen RNA isolation kit). Total RNA was quantitated using NanoDrop spectrophotometer and cDNA was reversely transcribed using 1 μg total RNA. Quantitative PCR was performed in replicates for each sample using primer sets for ATF3, CHOP, and both NMD and normal transcripts of SRSF3 and SRSF6. Data was doubly normalized to the 18S housekeeping gene and 2 hour DMSO control. Normalized RNA expression (y-axis) versus drug concentration in nM (x-axis) for each time point was plotted. SRSF3-1 NMD and SRSF6-1 NMD depict amplification of NMD transcript for SRSF3 and SRSF6, respectively. SRSF3-3 Normal and SRSF6-3 Normal depict amplification of normal transcript for SRSF3 and SRSF6 genes, respectively. […] FIGS. 29A-29F show effects of Compound D treatment on UPR and NMD pathways in KG-1 cells. […] Additionally, 100 nM Compound D or greater induced the mRNA levels of ATF3 and DDIT3 (CHOP) approximately 100-fold and 10-fold, respectively. […]
smiles,measurement,setting,value
"O=C1CCC(N2Cc3cc(CNC(=O)C(F)(F)c4ccc(Cl)cc4)ccc3C2=O)C(=O)N1 (stereo not shown) [Compound D, 2-(4-chlorophenyl)-N-((2-(2,6-dioxopiperidin-3-yl)-1-oxoisoindolin-5-yl)methyl)-2,2-difluoroacetamide]",IC50,NB-4 cells,17 nM
same,effect on GSPT1 level,GSPT1 [1],induced degradation
same,Percent Reduction at 100 nM Compound D GSPTI (8 hr),"GSPT1 [2]; 100 nM, 8 hr, change not concentration-dependent at the 8-hour time point",39^a %
same,GSPT1 reduction,"GSPT1 [2]; 300 nM Compound D, 8 hours",18%
same,effect on IKZF1 level,IKZF1,induced degradation
same,XBP1 pathway,XBP1,activated the XBP1 pathway
same,"Average Percent Increase in Apoptosis at 123 nM Compound D, Apoptosis (12 hr)",F36-P cells; 12 hr,0%
same,"Average Percent Increase in Apoptosis at 123 nM Compound D, Apoptosis (24 hr)",F36-P cells; 24 hr,2%
same,"Average Percent Increase in Apoptosis at 123 nM Compound D, Apoptosis (48 hr)",F36-P cells; 48 hr,6%
same,reduction of GSPT1 protein levels,"GSPT1 [3]; HL-60, 100 nM Compound D, 4 hours",greater than 800
same,reduction of GSPT1,"GSPT1 [3]; HL-60, >30 nM Compound D, 8 hours",complete reduction
same,time of induction of ATF4 protein,ATF4,8 h
same,induction of DDIT3 (CHOP) mRNA level,DDIT3 (CHOP),~10 fold
